In patent US11325896B2, “Antagonists of the muscarinic acetylcholine receptor M4” (Vanderbilt University, priority 2017, dated 2022):
Each block holds one molecule with its values, some of them ahead of it.

Target: T1, human mAChR M4 (Homo sapiens, UniProt P08173)
T1 construct: expressed in transfected cells; host or cells: CHO-K1 (ATCC), stably co-expressing the chimeric G protein Gqi5
T1 sequence (P08173 1-479): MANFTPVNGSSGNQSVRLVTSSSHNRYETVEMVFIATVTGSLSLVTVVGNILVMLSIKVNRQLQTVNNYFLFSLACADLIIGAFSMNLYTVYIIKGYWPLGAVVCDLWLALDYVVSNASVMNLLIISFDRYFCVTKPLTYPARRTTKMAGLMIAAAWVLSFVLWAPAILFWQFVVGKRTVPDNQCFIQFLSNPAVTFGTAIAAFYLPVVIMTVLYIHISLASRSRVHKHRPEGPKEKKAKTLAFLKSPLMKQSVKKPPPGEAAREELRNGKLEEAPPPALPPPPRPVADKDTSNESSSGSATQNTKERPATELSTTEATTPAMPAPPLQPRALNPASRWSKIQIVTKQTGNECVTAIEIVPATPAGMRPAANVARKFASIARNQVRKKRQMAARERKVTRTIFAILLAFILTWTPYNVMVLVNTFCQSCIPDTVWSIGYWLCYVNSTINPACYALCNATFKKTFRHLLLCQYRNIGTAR
Assay: mAChR M4 cell-based functional assay (calcium flux, decrease of EC80 acetylcholine response)
Conditions: for remaining activity at 30 µM: % ACh maximum at 30 μM, human M4, read-out: Emin; for IC50: M4/Gqi5/CHO-K1 cells, decrease of response to EC80 acetylcholine
Description: Human or rat M4 cDNA, along with the chimeric G protein Gqi5, were transfected into Chinese hamster ovary (CHO-K1) cells purchased from the American Type Culture Collection using Lipofectamine2000. M4/Gqi5/CHO cells were grown in Ham's F-12 medium containing 10% heat-inactivated fetal bovine serum (FBS), 20 mM HEPES, 500 μg/mL G418 sulfate, and 200 μg/mL Hygromycin B.
For high throughput measurement of agonist-evoked increases in intracellular calcium, CHO-K1 cells stably expressing muscarinic receptors were plated in growth medium lacking G418 and hygromycin at 15,000 cells/20 μL/well in Greiner 384-well black-walled, tissue culture (TC)-treated, clear-bottom plates (VWR). Cells were incubated overnight at 37° C. and 5% CO2. The next day, cells were washed using an ELX 405 (BioTek) with assay buffer: the final volume was then aspirated to 20 μL. Next, 20 μL of a 2.3 μM stock of Fluo-4/acetoxymethyl ester (Invitrogen, Carlsbad, Calif.), prepared as a 2.3 mM stock in DMSO and mixed in a 1:1 ratio with 10% (w/v) Pluronic F-127 and diluted in assay buffer, was added to the wells and the cell plates were incubated for 50 min at 37° C. and 5% CO2. Dye was removed by washing with the ELX 405 and the final volume was aspirated to 20 μL. Compound master plates were formatted in a 10 point concentration-response curve (CRC) format (1:3 dilutions) in 100% DMSO with a starting concentration of 10 or 1 mM using a BRAVO liquid handler (Agilent). Test compound CRCs were then transferred to daughter plates (240 nL) using the Echo acoustic plate reformatter (Labcyte, Sunnyvale, Calif.) and then diluted into assay buffer (40 μL) to a 2× stock using a Thermo Fisher Combi (Thermo Fisher Scientific, Waltham, Mass.).
Calcium flux was measured using the Functional Drug Screening System (FDSS) 6000 or 7000 (Hamamatsu Corporation, Tokyo, Japan) as an increase in the fluorescent static ratio. Compounds were applied to cells (20 μL, 2×) using the automated system of the FDSS at 2 seconds into the protocol and the data were collected at 1 Hz. At 143 s, 10 μL of an EC20 concentration of the muscarinic receptor agonist acetylcholine was added (5×), followed by the addition of 12 μL of an EC80 concentration of acetylcholine at the 268 s time point (5×). Agonist activity was analyzed as a concentration-dependent increase in calcium mobilization upon compound addition. Positive allosteric modulator activity was analyzed as a concentration-dependent increase in the EC20 acetylcholine response. Antagonist activity was analyzed as a concentration-dependent decrease in the EC80 acetylcholine response; for the purposes of the tables herein, an IC50 (inhibitory concentration 50) was calculated as a concentration-dependent decrease of the response elicited by an EC80 concentration of acetylcholine. Concentration-response curves were generated using a four-parameter logistical equation in XLFit curve fitting software (IDBS, Bridgewater, N.J.) for Excel (Microsoft, Redmond, Wash.) or Prism (GraphPad Software, Inc., San Diego, Calif.) or the Dotmatics software platform (Dotmatics, Bishop's Stortford, UK).
Compounds were synthesized as described above. Activity (IC50 and Emin) was determined in the mAChR M4 cell-based functional assay as described above and the data are shown in Table 4. The compound numbers correspond to those used in Examples 1-4 and Tables 1-3.

remaining activity at 30 µM: 8.6% | IC50: 2340 nM
SMILES: Cc1nn(C)cc1-c1ccc(OCC2CC3(C2)CN(CC2CCCCC2)C3)nn1 [Compound 21, 2-(Cyclohexylmethyl)-6-(((6-(1,3-dimethyl-1H-pyrazol-4-yl)pyridazin-3-yl)oxy)methyl)-2-azaspiro[3.3]heptane]

remaining activity at 30 µM: 13.5% | IC50: 4140 nM
SMILES: Cc1nn(C)cc1-c1ccc(NCC2CC3(C2)CN(CC2CCCCC2)C3)nn1 [Compound 16, N-((2-(cyclohexylmethyl)-2-azaspiro[3.3]heptan-6-yl)methyl)-6-(1,3-dimethyl-1H-pyrazol-4-yl)pyridazin-3-amine]

remaining activity at 30 µM: 20.5% | IC50: 8140 nM
SMILES: CC(=O)Nc1ccc(-c2ccc(NCC3CC4(C3)CN(CC3CCCCC3)C4)nn2)cc1 [Compound 19, N-(4-(6-(((2-(cyclohexylmethyl)-2-azaspiro[3.3]heptan-6-yl)methyl)amino)pyridazin-3-yl)phenyl)acetamide]

remaining activity at 30 µM: 4.6% | IC50: 1380 nM
SMILES: Cc1nn(C)cc1-c1ccc(OCC2CC3(C2)CN(CCC(C)(C)C)C3)nn1 [Compound 22, 6-(((6-(1,3-dimethyl-1H-pyrazol-4-yl)pyridazin-3-yl)oxy)methyl)-2-(3,3-dimethylbutyl)-2-azaspiro[3.3]heptane]

remaining activity at 30 µM: 7.5% | IC50: 1490 nM
SMILES: Cc1nn(C)cc1-c1ccc(NCC2CC3(C2)CN(CCC(C)(C)C)C3)nn1 [Compound 15, 6-(1,3-dimethyl-1H-pyrazol-4-yl)-N-((2-(3,3-dimethylbutyl)-2-azaspiro[3.3]heptan-6-yl)methyl)pyridazin-3-amine]

remaining activity at 30 µM: 8.1% | IC50: 1550 nM
SMILES: CC(=O)Nc1ccc(-c2ccc(NCC3CC4(C3)CN(CC3CC5C=CC3C5)C4)nn2)cc1 (centres unmarked) [Compound 18, N-(4-(6-(((2-(bicyclo[2.2.1]hept-5-en-2-ylmethyl)-2-azaspiro[3.3]heptan-6-yl)methyl)amino)pyridazin-3-yl)phenyl)acetamide]

remaining activity at 30 µM: 16.5% | IC50: 4200 nM
SMILES: Cc1cccnc1CN1CC2(CC(COc3ccc(-c4cn(C)nc4C)nn3)C2)C1 [Compound 25, 6-(((6-(1,3-dimethyl-1H-pyrazol-4-yl)pyridazin-3-yl)oxy)methyl)-2-((3-methylpyridin-2-yl)methyl)-2-azaspiro[3.3]heptane]

remaining activity at 30 µM: 3.7% | IC50: 680 nM
SMILES: Cc1nn(C)cc1-c1ccc(OCC2CC3(C2)CN(CC2CC4C=CC2C4)C3)nn1 (centres unmarked) [Compound 23, 2-(bicyclo[2.2.1]hept-5-en-2-ylmethyl)-6-(((6-(1,3-dimethyl-1H-pyrazol-4-yl)pyridazin-3-yl)oxy)methyl)-2-azaspiro[3.3]heptane]

remaining activity at 30 µM: 2.6% | IC50: 59 nM
SMILES: Fc1ccc(Cl)c(-c2ccc(NCC3CC4(C3)CN(CC3CC5C=CC3C5)C4)nn2)c1 (centres unmarked) [Compound 14, N-((2-(bicyclo[2.2.1]hept-5-en-2-ylmethyl)-2-azaspiro[3.3]heptan-6-yl)methyl)-6-(2-chloro-5-fluorophenyl)pyridazin-3-amine]

remaining activity at 30 µM: 7.8% | IC50: 2200 nM
SMILES: CC(=O)Nc1ccc(-c2ccc(NCC3CC4(C3)CN(CCC(C)(C)C)C4)nn2)cc1 [Compound 17, N-(4-(6-(((2-(3,3-dimethylbutyl)-2-azaspiro[3.3]heptan-6-yl)methyl)amino)pyridazin-3-yl)phenyl)acetamide]

remaining activity at 30 µM: 36.4% | IC50: 10000 nM
SMILES: Cc1nn(C)cc1-c1ccc(OCC2CC3(C2)CN(Cc2ccccc2)C3)nn1 [Compound 24, 2-benzyl-6-(((6-(1,3-dimethyl-1H-pyrazol-4-yl)pyridazin-3-yl)oxy)methyl)-2-azaspiro[3.3]heptane]

The next lines start with the molecule.

SMILES: Fc1ccc(Cl)c(-c2ccc(NC3CC4(C3)CN(CC3CCCCC3)C4)nn2)c1 [Compound 5, N-(6-(2-chloro-5-fluorophenyl)pyridazin-3-yl)-2-(cyclohexylmethyl)-2-azaspiro[3.3]heptan-6-amine]
remaining activity at 30 µM: 3.1% | IC50: 210 nM

SMILES: Cc1cnn(C)c1-c1ccc(NCC2CC3(C2)CN(CCC(C)(C)C)C3)nn1 [Compound 11, 6-(1,4-Dimethyl-1H-pyrazol-5-yl)-N-((2-(3,3-dimethylbutyl)-2-azaspiro[3.3]heptan-6-yl)methyl)pyridazin-3-amine]
remaining activity at 30 µM: 6.5% | IC50: 1350 nM

SMILES: CC(C)(C)CCN1CC2(C1)CC1(CC1CNc1ccc(Cl)nn1)C2 (centres unmarked) [Compound 20, 6-Chloro-N-((7-(3,3-dimethylbutyl)-7-azadispiro[2.1.3^5.1^3]nonan-1-yl)methyl)pyridazin-3-amine]
remaining activity at 30 µM: 4.9% | IC50: 450 nM

SMILES: Fc1ccc(Cl)c(-c2ccc(NC3CC4(C3)CN(CC35CC6CC(CC(C6)C3)C5)C4)nn2)c1 [Compound 8, 2-(adamantan-1-ylmethyl)-N-(6-(2-chloro-5-fluorophenyl)pyridazin-3-yl)-2-azaspiro[3.3]heptan-6-amine]
remaining activity at 30 µM: 3.8% | IC50: 150 nM

SMILES: Fc1ccc(Cl)c(-c2ccc(NC3CC4(C3)CN(CC3CC5C=CC3C5)C4)nn2)c1 (centres unmarked) [Compound 3, 2-(bicyclo[2.2.1]hept-5-en-2-ylmethyl)-N-(6-(2-chloro-5-fluorophenyl)pyridazin-3-yl)-2-azaspiro[3.3]heptan-6-amine]
remaining activity at 30 µM: 4% | IC50: 100 nM

SMILES: Cc1nn(C)cc1-c1ccc(NCC2CC3(C2)CN(CC(C)C(C)(C)C)C3)nn1 (centres unmarked) [Compound 13, 6-(1,3-dimethyl-1H-pyrazol-4-yl)-N-((2-(2,3,3-trimethylbutyl)-2-azaspiro[3.3]heptan-6-yl)methyl)pyridazin-3-amine]
remaining activity at 30 µM: 6.1% | IC50: 1530 nM

SMILES: Fc1ccc(Cl)c(-c2ccc(NC3CC4(C3)CN(CC3CCCOC3)C4)nn2)c1 (centres unmarked) [Compound 6, N-(6-(2-chloro-5-fluorophenyl)pyridazin-3-yl)-2-((tetrahydro-2H-pyran-3-yl)methyl)-2-azaspiro[3.3]heptan-6-amine]
remaining activity at 30 µM: 5.4% | IC50: 2480 nM

SMILES: Fc1ccc(Cl)c(-c2ccc(NC3CC4(C3)CN(CC3CCOCC3)C4)nn2)c1 [Compound 7, N-(6-(2-chloro-5-fluorophenyl)pyridazin-3-yl)-2-((tetrahydro-2H-pyran-4-yl)methyl)-2-azaspiro[3,3]heptan-6-amine]
remaining activity at 30 µM: 7.8% | IC50: 2270 nM

SMILES: CC(=O)Nc1ccc(-c2ccc(NC3CC4(C3)CN(CCC(C)(C)C)C4)nn2)cc1 [Compound 1, N-(4-(6-((2-(3,3-Dimethylbutyl)-2-azaspiro[3.3]heptan-6-yl)amino)pyridazin-3-yl)phenyl)acetamide]
remaining activity at 30 µM: 9.8% | IC50: 1310 nM

SMILES: Cc1nn(C)cc1-c1ccc(NC2CC3(C2)CN(CCC(C)(C)C)C3)nn1 [Compound 9, N-(6-(1,3-dimethyl-1H-pyrazol-4-yl)pyridazin-3-yl)-2-(3,3-dimethylbutyl)-2-azaspiro[3.3]heptan-6-amine]
remaining activity at 30 µM: 12.4% | IC50: 2890 nM

SMILES: Cc1nn(C)cc1-c1ccc(NCC2CC3(C2)CN(CC2CC4C=CC2C4)C3)nn1 (centres unmarked) [Compound 12, N-((2-(bicyclo[2.2.1]hept-5-en-2-ylmethyl)-2-azaspiro[3.3]heptan-6-yl)methyl)-6-(1,3-dimethyl-1H-pyrazol-4-yl)pyridazin-3-amine]
remaining activity at 30 µM: 3.6% | IC50: 700 nM
